Experimental data: PMC4686663, “Ultrahigh-throughput discovery of promiscuous enzymes by picodroplet functional metagenomics” (Nature Communications, 2015)
Structures can show the parent of a compound that is named as a salt. Where two headings read alike, the source gives them in different places.

How the values were obtained:
P40 = biological target: T1, P40 (uncultured organism, UniProt A0A141FA90); test: sulfate transfer kinetics; type: biochemical; settings: acceptor phenolate; ping-pong mechanism
T1 construct: ORF p40 recloned in modified pRSFDuet (NcoI-XhoI), E. coli BL21(DE3); no tag stated

P84 = P84 (uncultured organism, UniProt A0A141FA95); test: 4-nitrophenolate release, […] nm, initial rates; settings: 100 mM MOPS-NaOH pH 8.0, 150 mM NaCl, 25 °C
P85 = system: T2, P85; test: 4-nitrophenolate release, […] nm, initial rates; type: biochemical; settings: 100 mM MOPS-NaOH pH 8.0, 150 mM NaCl, 25 °C
T2 construct: N-terminal Strep-tag, pASKIBA5plus (BsaI), E. coli BL21(DE3); Strep-Tactin and gel filtration

P86 = biological target: T3, P86 (uncultured organism, UniProt A0A141FA97); test: 4-nitrophenolate release, […] nm, initial rates; type: biochemical; settings: 100 mM MOPS-NaOH pH 8.0, 150 mM NaCl, 25 °C
T3 construct: N-terminal Strep-tag, pASKIBA5plus (EcoRI-NcoI), E. coli BL21(DE3); Strep-Tactin and gel filtration

P83 = biological target: T4, P83 (uncultured organism, UniProt A0A141FA94); test: 4-nitrophenolate release, […] nm, initial rates; type: biochemical; settings: 100 mM MOPS-NaOH pH 8.0, 150 mM NaCl, 25 °C
T4 construct: N-terminal Strep-tag, pASKIBA5plus (BsaI), E. coli BL21(DE3); Strep-Tactin and gel filtration

[1] = substrate: CC(=O)Oc1ccc([N+](=O)[O-])cc1; test: purified protein, by the assay type; design: Michaelis-Menten kinetics of substrate hydrolysis by purified enzyme, initial rates by absorbance or fluorescence, plate reader; settings: 25.0 °C
Procedure: (§1) All enzymatic assays were conducted at 25 °C in a final volume of 200 μl, in the activity buffer (100 mM MOPS-NaOH pH 8.0, containing 150 mM NaCl) that was used throughout the experiments, unless otherwise stated. Measurements were performed in 96-well plate format and product formation followed in SpectraMax M5 or 190 microplate readers. Hydrolysis of substrates with fluorescein leaving groups (1d and 2d) was monitored at the following wavelengths: λexcitation=488 nm and λemission=525 nm. A calibration curve (linearly fit to the equation: fluorescence=1.2 × 10^10 M^−1 [fluorescein]) was used to quantify fluorescein release. Hydrolysis of esters 1, 2a, 2b, 3, 4, 5, 6 and acetamide 9 was monitored by measuring absorbance of p-nitrophenolate at 400 nm (ɛ≈17,700 M^−1 cm^−1). Hydrolysis of thioester 7 was measured in the presence of the indicator 5,5'-dithiobis-(2-nitrobenzoic acid) (500 μM); the increase of 2-nitro-5-thiobenzoate was monitored at 412 nm (ɛ≈13,100 M^−1 cm^−1)[39]. Hydrolysis of lactones 8b, 8c, 8d1, 8d2 was measured using a pH-shift assay in 2.5 mM Bicine, 200 mM NaCl, 0.3 mM cresol purple pH 8.3 (ref. [65]). The pH drop was monitored by the decrease in the absorbance of the indicator dye cresol purple at 577 nm (ɛ≈4,000 M^−1 cm^−1). Hydrolysis of lactone 8a was measured at 270 nm in an ultraviolet-transparent 96-well plate. Hydrolysis of β-lactam 10 was measured at 405 nm in phosphate buffer (100 mM, pH 8.0). All kinetic parameters were calculated by fitting initial rates vo to the Michaelis–Menten equations (or, if saturation could not be reached due to solubility limits, to linear correlations) using Kaleidagraph. Example data and details of equations used for fitting are shown in Supplementary Fig. 14. (b) PTE hits. Applying the screening workflow to PTEs (using triester 2d as substrate) led to the isolation of eight unique and novel sequences, mostly originating from unknown microorganisms (Supplementary Table 2). Only one of these genes (p83) was predicted as a potential PTE by Pfam domain recognition (Fig. 3). […]

[2] = substrate: O=C1CCc2ccccc2O1; test: purified protein, by the assay type; design: Michaelis-Menten kinetics of substrate hydrolysis by purified enzyme, initial rates by absorbance or fluorescence, plate reader
Procedure: as §1

T1 sequence (A0A141FA90 entry or part of it): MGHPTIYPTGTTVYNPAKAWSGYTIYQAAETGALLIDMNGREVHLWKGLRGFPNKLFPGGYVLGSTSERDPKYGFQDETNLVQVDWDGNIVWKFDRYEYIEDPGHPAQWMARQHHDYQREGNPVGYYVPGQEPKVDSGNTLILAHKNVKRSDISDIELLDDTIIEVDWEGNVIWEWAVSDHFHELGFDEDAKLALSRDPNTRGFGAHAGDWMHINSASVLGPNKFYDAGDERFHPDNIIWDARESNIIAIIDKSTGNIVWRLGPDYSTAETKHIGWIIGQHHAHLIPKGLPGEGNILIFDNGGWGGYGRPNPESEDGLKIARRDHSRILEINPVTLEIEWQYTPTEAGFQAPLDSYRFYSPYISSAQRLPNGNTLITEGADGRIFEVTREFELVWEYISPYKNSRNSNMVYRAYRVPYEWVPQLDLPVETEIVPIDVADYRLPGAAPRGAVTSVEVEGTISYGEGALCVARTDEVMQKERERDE
Chain of P84 (A0A141FA95 entry or part of it): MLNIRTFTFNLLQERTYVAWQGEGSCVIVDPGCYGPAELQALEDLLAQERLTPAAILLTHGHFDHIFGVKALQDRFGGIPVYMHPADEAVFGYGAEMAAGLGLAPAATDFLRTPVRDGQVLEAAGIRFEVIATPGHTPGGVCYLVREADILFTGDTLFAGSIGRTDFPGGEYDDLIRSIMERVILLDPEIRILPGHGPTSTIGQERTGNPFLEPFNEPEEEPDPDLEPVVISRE
T3 sequence (A0A141FA97 entry or part of it): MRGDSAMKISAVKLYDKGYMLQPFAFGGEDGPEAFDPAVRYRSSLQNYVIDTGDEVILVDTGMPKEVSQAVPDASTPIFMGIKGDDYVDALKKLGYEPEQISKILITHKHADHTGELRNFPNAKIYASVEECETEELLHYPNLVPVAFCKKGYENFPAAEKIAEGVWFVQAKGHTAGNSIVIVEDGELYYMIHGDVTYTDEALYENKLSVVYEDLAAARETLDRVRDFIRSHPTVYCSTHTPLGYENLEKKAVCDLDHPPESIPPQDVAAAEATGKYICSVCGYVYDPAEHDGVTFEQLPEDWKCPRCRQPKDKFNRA

Molecule: O=[N+]([O-])c1ccc(OS(=O)(=O)O)cc1 [1a, sulfate ester 1a]
- sulfate transfer kinetics (P40): P40 was shown to catalyse sulfate transfer from sulfate ester 1a to phenolate

Molecule: CCOP(=O)(OCC)Oc1ccc([N+](=O)[O-])cc1 [2a, paraoxon]
- Km (P84): > 5 mM
- Km (P85): > 5 mM
- Km (P86): > 5 mM
- Km (P83): > 5 mM

B1: P88.2 (uncultured organism) (protein)
chain: MNLTETLPGDELANAMAARGYPAVEPATTRDRGVGPFRRLVLRGARILDGTGAPPVGPYDIVVEGGRIKEVVLVGVPKMPIKPERRPAPGDHEIDCTGKLVTPGFVDAHVHIGTYYHAPSGPMPSADYVYKLWLAHGITTVREMACMNGVGWTLEQKEAAAANRIAAPKIVAHAYFPAVDEFIKTIYTVEQARKWVRAVKERGVDGLKFFGAPPAIMQAALEEANKLGMRSGCHHAQMSVSKVNALRSAQWGLTSTEHFYGIPEAMFIDRAVQAYPVGYDFMDESLRYNSSSQNFIQAAEPGSAKWQETLEKFLELGHSFVPTLAILEANRDLMRARRADWHDEYTHKTLWTYFQPHRGGHCSHWYRWTTTNEVQWKEHFRRWMRFCNDYKNLGGRVCPGSDAGFTFQLYGFCFIRELEQMQEAGFHPLEIFRAATSESAALLGVDHETGTIEPGKCADLLVHRYDPLDDLKYLYGTGAWRLNDETGKTEWHRGIEYTIKDGVIYDPAELLADVRAIVAESFNEGEDTRPRTRR
notes: N-terminal Strep-tag, pASKIBA5plus (EcoRI-NcoI), E. coli BL21(DE3); Strep-Tactin and gel filtration
- Km [1]: 2.9 ± 1.2 mM

B2: P83 (uncultured organism) (protein)
chain: MQINSVLGPVDTADLGFTLIHEHLLIGWAGWQWDSRWEFDRANAMAKAVDLLQELKALGVSTFVDPCPMDIGRDPEFLAEASQRSGMTIIASTGLYHSEMGIPSYFHAMPEEEIAEIFIHDLTEGMGHTGIKAGIIKCATTAGHVTEQEQKTHGAAARAQVATGAPIITHTDENGPMGLAQLDIFESRGASVSKIAIGHSCGNGDIRYLLSVLERGAWLSFDRFGFGLSASDDVRVASLLGLIGLGYADRLMISHDSVSTFLAKPGGWDPAQEPSLANWKPTHIIQNIIPRLKNAGVSQEVIDTITIDNPRRYFEGSAASGNK
notes: N-terminal Strep-tag, pASKIBA5plus (BsaI), E. coli BL21(DE3); Strep-Tactin and gel filtration
- Km [2]: 2.5 ± 0.4 mM

B3: P91 (uncultured organism) (protein)
chain: MTARKVDYTDGATRCIGEFHWDEGKSGPRPGVVVFPEAFGLNDHAKERARRLADLGFAALAADMHGDAQVFDAASLSSTIQGYYGDRAHWRRRAQAALDALTAQPEVDGSKVAAIGFCFGGATCLELARTGAPLTAIVTFHGGLLPEMAGDAGRIQSSVLVCHGADDPLVQDETMKAVMDEFRRDKVDWQVLYLGNAVHSFTDPLAGSHGIPGLAYDATAEARSWTAMCNLFSELFG
notes: as for B2
- Km ([2]; 25.0 °C): 7.7 ± 2.5 mM
